Results taken from ChEMBL document CHEMBL5724796, “Tm Shift (DSF) assay results for EUbOPEN Chemogenomics Library” (2024).
Non-standard residues stand in square brackets, D forms with d. Residues, ends and D or L forms follow the SMILES beside them. *: point of attachment. Tyr(3-Cl) = N[C@@H](Cc1ccc(O)c(Cl)c1)C(=O)O; Benzoyl(4-OPh) = O=C(c1ccc(Oc2ccccc2)cc1)*; Benzoyl(3,5-Cl2) = O=C(c1cc(Cl)cc(Cl)c1)*; Lys(Et2) = CCN(CC)CCCC[C@H](N)C(=O)O; d(aIle) = CC[C@H](C)[C@@H](N)C(=O)O; Gly(cPent) = N[C@H](C(=O)O)C1CCCC1; Cbz = O=C(OCc1ccccc1)*; NH(propargyl) = C#CCN*; CH2F = FC*

Tests used:
[1] = molecular target: T1, Peregrin (Homo sapiens) (UniProt P55201); conditions: Compound concentration 20.0 uM
T1 sequence (whole entry): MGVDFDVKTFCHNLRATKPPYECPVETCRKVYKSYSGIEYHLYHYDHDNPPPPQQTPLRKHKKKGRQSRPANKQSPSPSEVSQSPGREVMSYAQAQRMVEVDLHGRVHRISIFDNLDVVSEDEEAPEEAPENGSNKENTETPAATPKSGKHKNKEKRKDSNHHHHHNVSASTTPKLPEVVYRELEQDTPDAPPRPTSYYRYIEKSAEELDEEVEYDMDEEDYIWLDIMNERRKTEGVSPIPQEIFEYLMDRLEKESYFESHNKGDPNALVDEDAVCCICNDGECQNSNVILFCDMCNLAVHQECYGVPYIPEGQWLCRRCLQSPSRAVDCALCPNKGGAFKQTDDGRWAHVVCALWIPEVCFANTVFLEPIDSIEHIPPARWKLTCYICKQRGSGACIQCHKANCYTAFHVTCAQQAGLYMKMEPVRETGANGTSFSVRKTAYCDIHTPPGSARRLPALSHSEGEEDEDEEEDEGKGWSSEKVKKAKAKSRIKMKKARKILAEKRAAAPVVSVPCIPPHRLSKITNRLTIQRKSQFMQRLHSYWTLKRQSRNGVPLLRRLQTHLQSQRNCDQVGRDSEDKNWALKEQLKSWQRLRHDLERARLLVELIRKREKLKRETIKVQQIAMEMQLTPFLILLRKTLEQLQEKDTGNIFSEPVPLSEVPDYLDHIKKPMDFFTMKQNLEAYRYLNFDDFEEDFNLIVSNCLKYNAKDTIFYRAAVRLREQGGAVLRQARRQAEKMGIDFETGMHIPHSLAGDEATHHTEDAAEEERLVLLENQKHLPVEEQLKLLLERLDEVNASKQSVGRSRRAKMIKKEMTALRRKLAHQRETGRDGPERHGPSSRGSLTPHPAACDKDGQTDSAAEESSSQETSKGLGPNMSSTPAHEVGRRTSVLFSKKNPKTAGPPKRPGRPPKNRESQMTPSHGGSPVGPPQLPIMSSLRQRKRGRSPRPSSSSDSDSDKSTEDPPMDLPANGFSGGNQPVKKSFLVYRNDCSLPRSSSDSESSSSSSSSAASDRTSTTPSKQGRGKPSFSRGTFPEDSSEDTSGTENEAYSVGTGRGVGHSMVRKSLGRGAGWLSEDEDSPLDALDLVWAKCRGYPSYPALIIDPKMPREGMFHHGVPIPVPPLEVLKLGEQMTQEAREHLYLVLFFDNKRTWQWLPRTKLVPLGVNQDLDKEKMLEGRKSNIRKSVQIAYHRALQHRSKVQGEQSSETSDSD

[2] = molecular target: Fibroblast growth factor receptor 2 (Homo sapiens) (UniProt P21802); conditions: Compound concentration 20.0 uM
Fibroblast growth factor receptor 2 (Homo sapiens), sequence (P21802 22-821 limits assumed): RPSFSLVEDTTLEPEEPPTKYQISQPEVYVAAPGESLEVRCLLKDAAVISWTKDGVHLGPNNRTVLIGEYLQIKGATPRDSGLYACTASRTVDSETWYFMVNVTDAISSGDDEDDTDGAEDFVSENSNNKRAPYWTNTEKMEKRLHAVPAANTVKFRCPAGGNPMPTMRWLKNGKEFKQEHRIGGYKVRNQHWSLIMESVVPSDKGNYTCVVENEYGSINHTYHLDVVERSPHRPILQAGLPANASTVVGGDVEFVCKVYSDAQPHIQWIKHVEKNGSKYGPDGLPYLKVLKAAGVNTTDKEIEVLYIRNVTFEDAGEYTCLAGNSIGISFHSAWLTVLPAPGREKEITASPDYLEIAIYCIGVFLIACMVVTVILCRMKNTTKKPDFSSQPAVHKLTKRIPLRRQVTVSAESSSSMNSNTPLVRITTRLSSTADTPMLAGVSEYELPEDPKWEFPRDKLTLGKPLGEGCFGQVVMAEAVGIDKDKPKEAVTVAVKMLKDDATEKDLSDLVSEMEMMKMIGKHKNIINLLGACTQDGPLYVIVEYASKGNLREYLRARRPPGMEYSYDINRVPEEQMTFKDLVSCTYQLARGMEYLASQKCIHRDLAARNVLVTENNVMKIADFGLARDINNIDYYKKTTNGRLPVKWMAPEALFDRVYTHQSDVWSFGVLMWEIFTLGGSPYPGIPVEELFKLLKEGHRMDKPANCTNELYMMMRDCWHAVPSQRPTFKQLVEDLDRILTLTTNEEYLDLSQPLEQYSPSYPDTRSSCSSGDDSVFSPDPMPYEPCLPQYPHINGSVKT
Description: Thermal Shift Assay. Domain: start/stop: T457-E768

| Structure (SMILES) | ΔTm [1] | ΔTm [2] | ΔTm ([1]; tested as the 2H-labelled form) | ΔTm ([2]; tested as the 2H-labelled form) |
| --- | --- | --- | --- | --- |
| CC(=O)N[C@@H](CCCCNC(=O)CSCCNC(=O)CCNC(=O)[C@H](O)C(C)(C)COP(=O)(O)OP(=O)(O)OC[C@H]1O[C@@H](n2cnc3c(N)ncnc32)[C@H](O)[C@@H]1OP(=O)(O)O)C(N)=O | 1.95 °C | 0.51 °C |  |  |
| COc1ccc(C(=O)C2CCN(CC(=O)N(Cc3nc4c(c(=O)[nH]3)COCC4)CC3CC3)CC2)cc1 | 2.73 °C | -0.62 °C |  |  |
| COc1ccc(/C=C/C(=O)NO)c(-c2ccc(-c3ccccc3)cc2)c1 | -5.43 °C | -5.03 °C |  |  |
| CC1C(C#N)=C(N)OC2=C1C(=O)CC(c1cccc3ccccc13)C2 (stereo unspecified) | 1.86 °C | -1.52 °C |  |  |
| Cc1ncsc1-c1ccc(CNC(=O)[C@@H]2C[C@@H](O)CN2C(=O)[C@@H](NC(=O)COCCOCCOCCNC(=O)C[C@@H]2N=C(c3ccc(Cl)cc3)c3c(sc(C)c3C)-n3c(C)nnc32)C(C)(C)C)cc1 | -1.64 °C | 0.61 °C |  |  |
| C[C@H](NC(=O)CCc1nc2ccccc2c(=O)[nH]1)c1ccccc1 | -0.15 °C | 0.69 °C |  |  |
| CC1(C)Cn2nc(-c3ccc(F)cn3)c(-c3ccnc4[nH]ncc34)c2CO1 |  |  | -1.29 °C | 0.38 °C |
| CC(C)(Sc1ccncc1-c1ccc(C#N)c2ccccc12)C(=O)O | 0.05 °C | 0.42 °C |  |  |
| Nc1ncnc2c1c(I)cn2[C@@H]1O[C@H](CO)[C@@H](O)[C@H]1O | 2.98 °C | 2.17 °C |  |  |
| CNc1cc(-c2cccc(Cl)c2Cl)nc(N)n1 | 0.7 °C | -0.72 °C |  |  |
| C/C(=N\NC(=O)c1cccc(S(=O)(=O)N2CCOCC2)c1)c1cc(Cl)ccc1O | 2.44 °C | -0.21 °C |  |  |
| CCOCC1(COCC)CCC(c2n[nH]cc2CN(C)CCNC)CC1 | -0.75 °C | -0.35 °C |  |  |
| CCN(c1cc(C#CCN2CCOCC2)cc(C(=O)NCc2c(C)cc(C)[nH]c2=O)c1C)[C@H]1CC[C@H](N(C)CCOC)CC1 | -1.63 °C | 0.42 °C |  |  |
| O=c1c2nnc(C3CCOCC3)n2cc(Br)n1CC1CCCC1 | -0.41 °C | -0.26 °C |  |  |
| C#CCNC(=O)[C@H](CO)NC(=O)[C@H](CCCCN(CC)CC)NC(=O)[C@@H](NC(=O)[C@@H](NC(=O)[C@H](Cc1ccc(O)c(Cl)c1)NC(=O)c1cc(Cl)cc(Cl)c1)C1CCCC1)[C@@H](C)CC ({Benzoyl(3,5-Cl2)}-[Tyr(3-Cl)][Gly(cPent)]I[Lys(Et2)]S-{NH(propargyl)}) | 1.15 °C | -1.31 °C |  |  |
| COc1cc(Oc2ccnc3cc(OC)c(OC)cc23)ccc1NC(=O)NC(C)c1nccs1 (stereo unspecified) | -1.23 °C | -3.29 °C |  |  |
| CC(C)n1nc(-c2cc3cc(O)ccc3[nH]2)c2c(N)ncnc21 | 1.52 °C | 4.67 °C |  |  |
| O=C(CN1CCN(c2ccc(F)cn2)CC1)Nc1nc2c(s1)CCCC2 | 2.63 °C | -0.21 °C |  |  |
| CCOc1ccc2nc(-c3cccc(OCC(=O)NC(C)C)c3)nc(Nc3ccc(-c4cn[nH]c4)cc3)c2c1 | 2.82 °C | -0.59 °C |  |  |
| O=C(Nc1ccc2[nH]nc(-c3ccncc3)c2c1)[C@@H]1CCN(CC(=O)N2CCN(c3ccc(-c4ncccn4)cc3)CC2)C1 | -0.34 °C | 0.95 °C |  |  |
| CC(C)Nc1cc(-c2c[nH]c(C(=O)N[C@H](CO)c3cccc(Cl)c3)c2)c(Cl)cn1 | 0.61 °C | 0.33 °C |  |  |
| CCN(c1cc(-c2ccc(CN3CCOCC3)cc2)cc(C(=O)NCc2c(C)cc(C)[nH]c2=O)c1C)C1CCOCC1 | -1.14 °C | 0.66 °C |  |  |
| Cc1cc(C)c(CNC(=O)c2cc(-c3ccc(N4CCN(C)CC4)nc3)cc3c2c(C)cn3C(C)C)c(=O)[nH]1 | -1.27 °C | 0.85 °C |  |  |
| Cc1ccc2[nH]c(-n3nc(C)c(Cc4ccccc4)c3O)nc2c1 | 0.31 °C | -0.11 °C |  |  |

| Structure (SMILES) | ΔTm [1] | ΔTm [2] | ΔTm ([1]; tested as the 2H-labelled form) | ΔTm ([2]; tested as the 2H-labelled form) |
| --- | --- | --- | --- | --- |
| CC(=O)N[C@@H](CC(=O)O)C(=O)N[C@@H](CC(N)=O)C(=O)N[C@@H](CC(C)C)C(=O)N[C@H](C=O)CC(=O)O | 1.79 °C | 0.44 °C |  |  |
| C=CCc1cccc(CNc2nc3ccccc3n2CCC)c1O | 4.18 °C | 0.14 °C |  |  |
| CS(=O)(=O)N1CCN(C(=O)c2cnc3ccc(F)cc3c2-c2ccc(C3(C#N)CC3)cc2)CC1 | 0.38 °C | 0.1 °C |  |  |
| NC(=O)c1cccc(NC(=O)CCC(=O)NCCc2cn(CCNS(=O)(=O)c3cccc(C(=O)O)c3)nn2)c1 | -1.38 °C | -1.91 °C |  |  |
| CC1(C)c2cccc(C(=O)NO)c2CN1c1cnc(C(F)(F)F)cn1 | 0.66 °C | 0.83 °C |  |  |
| COC(=O)CC[C@H](NC(=O)[C@H](Cc1c[nH]c2ccccc12)NC(=O)OCc1ccccc1)C(=O)N[C@@H](Cc1cnc[nH]1)C(=O)N[C@@H](CC(=O)OC)C(=O)CF (Cbz-WE(OMe)HD(OMe)-CH2F) | -1.05 °C | 0.1 °C |  |  |
| Cc1ccc(C(=O)Nc2ccc(S(=O)(=O)O)c3cc(S(=O)(=O)O)cc(S(=O)(=O)O)c23)cc1NC(=O)c1cccc(NC(=O)Nc2cccc(C(=O)Nc3cc(C(=O)Nc4ccc(S(=O)(=O)O)c5cc(S(=O)(=O)O)cc(S(=O)(=O)O)c45)ccc3C)c2)c1 | -1.58 °C | -1.68 °C |  |  |
| O=c1[nH][nH]c(=O)c2cc(OCc3ccccc3F)ccc12 | 2.62 °C | 0.22 °C |  |  |
| COc1cc2c(NC3CCN(C)CC3)nc(N3CCCN(C)CC3)nc2cc1OCCCN(C)C | -1.21 °C | 0.15 °C |  |  |
| CC/C(=C(/CC)c1ccc(O)cc1)c1ccc(O)cc1 | -8.49 °C | -8.29 °C |  |  |
| Cn1nc2c(=O)n(CC3(O)CCN(C(=O)C[C@H](c4ccccc4)C(F)(F)F)CC3)cnc2c1-c1ccc(CN)cc1 | 1.89 °C | -0.7 °C |  |  |
| C[C@@H]1CN(c2nccc(Nc3ccc4c(c3)n(CCC(C)(C)O)c(=O)n4C)n2)C[C@H](C)C1(F)F | -0.49 °C | -0.7 °C |  |  |
| Cc1sc2c(c1C)C(c1ccc(Cl)cc1)=N[C@@H](CC(=O)OC(C)(C)C)c1nnc(C)n1-2 | -1.61 °C | 0.6 °C |  |  |
| O=[N+]([O-])c1ccc(CSc2ncnc3c2ncn3[C@@H]2O[C@H](CO)[C@@H](O)[C@H]2O)cc1 | 1.12 °C | 0.22 °C |  |  |
| Cc1nnn(C)c1-c1cnc2c3cc4cnn(C)c4cc3n([C@H](c3ccccc3)C3CCOCC3)c2c1 | -0.09 °C | -0.32 °C |  |  |
| CNCC[C@@H](Oc1ccccc1C)c1ccccc1 | -1.53 °C | 0.34 °C |  |  |
| CCN1C(C)(C)CC(Oc2ccc(C(=O)Nc3ccc(NC(=O)Nc4cc(C(C)(C)C)on4)cc3)nc2)CC1(C)C | -1.03 °C | -2 °C |  |  |
| CCNC(=O)c1noc(-c2cc(C(C)C)c(O)cc2O)c1-c1ccc(CN2CCOCC2)cc1 | -1.1 °C | 0.62 °C |  |  |
| N[C@@H](CC(=O)Nc1ccc(Oc2cc(F)c(F)cc2Br)cc1)C(=O)O | 0.59 °C | -0.01 °C |  |  |
| FC(F)(F)Cn1cc(-c2ccncc2)c(-c2ccc(OCc3ccc4ccccc4n3)cc2)n1 | 0.9 °C | 0.04 °C |  |  |
| Cc1cc(C(=O)N2CCN(C3CN(C(=O)c4ccc(-c5ccccc5)cc4)C3)CC2)no1 | -1.49 °C | 1.38 °C |  |  |
| C#CCNC(=O)[C@H](CO)NC(=O)[C@H](CCCCN(CC)CC)NC(=O)[C@H](NC(=O)[C@@H](NC(=O)c1ccc(Oc2ccccc2)cc1)C1CCCC1)[C@@H](C)CC ({Benzoyl(4-OPh)}-[Gly(cPent)][d(aIle)][Lys(Et2)]S-{NH(propargyl)}) | -0.64 °C | -1.33 °C |  |  |
| CCCOc1cc(OCCCCN(C)C)cc(Oc2cc3c(cc2NS(=O)(=O)c2ccc(OC)c(OC)c2)n(C)c(=O)n3C)c1 | 9.12 °C | 0.62 °C |  |  |
| CC(C)c1cnc(CSc2cnc(NC(=O)C3CCNCC3)s2)o1 | -1.67 °C | 0.73 °C |  |  |
